Test system: T1, 3-chlorobenzoate-1,2-dioxygenase (3-CBDO; 3-CBA-1,2-DO)
T1 construct: native enzyme, not purified, in intact freshly harvested 3-CBA-grown cells; component and subunit make-up printed only for the analogous benzoate 1,2-dioxygenase; with 3-chlorobenzoate 1,2-dioxygenase subunit beta (benzoate 1,2-dioxygenase small subunit-like); 3-chlorobenzoate 1,2-dioxygenase reductase component (benzoate 1,2-dioxygenase reductase-like)
Test: respiration of intact cells, Clark oxygen electrode reactor biosensor; Hill fit
Type: cell-based, Rhodococcus opacus
Details: 50 mM Tris-HCl pH 8.0, air-saturated, room temperature; intact 3-CBA-grown cells (indirect estimate of enzyme activity); Hill n 2.36; no added inhibitor; read-out: S0.5

Compound: O=C(O)c1cccc(Cl)c1 [3-chlorobenzoate]
- Km: 45.3 ± 6.3 µM
